± gives the expanded uncertainty stated by the source.
Details: Liquid; for viscosity: Capillary tube (Ostwald / Ubbelohde) method; for mass density: Vibrating tube method

## CC(C)CCCC(C)CCCC(C)CCCCC(C)CCCC(C)CCCC(C)C (stereo not given) [2,6,10,15,19,23-hexamethyltetracosane]
313.15 K, 5700 kPa
  viscosity: 16.52 ± 0.38 mPa·s
  mass density: 798.1 ± 2.4 kg/m3
313.15 K, 13500 kPa
  viscosity: 19.37 ± 0.44 mPa·s
  mass density: 804.3 ± 2.4 kg/m3
313.15 K, 23500 kPa
  viscosity: 23.38 ± 0.53 mPa·s
  mass density: 811.4 ± 2.5 kg/m3
313.15 K, 45700 kPa
  viscosity: 35.26 ± 0.82 mPa·s
  mass density: 822.6 ± 2.5 kg/m3
313.15 K, 68000 kPa
  viscosity: 52.85 ± 1.2 mPa·s
  mass density: 832.5 ± 2.6 kg/m3
338.15 K, 7900 kPa
  viscosity: 7.82 ± 0.18 mPa·s
  mass density: 783.2 ± 2.4 kg/m3
338.15 K, 11000 kPa
  viscosity: 8.05 ± 0.21 mPa·s
  mass density: 785.2 ± 2.4 kg/m3
338.15 K, 22500 kPa
  viscosity: 10.19 ± 0.26 mPa·s
  mass density: 793.3 ± 2.4 kg/m3
338.15 K, 45600 kPa
  viscosity: 14.4 ± 0.37 mPa·s
  mass density: 807.5 ± 2.5 kg/m3
338.15 K, 60500 kPa
  viscosity: 18.07 ± 0.41 mPa·s
  mass density: 814.6 ± 2.5 kg/m3
338.15 K, 76300 kPa
  viscosity: 22.98 ± 0.71 mPa·s
  mass density: 820.5 ± 2.6 kg/m3
363.15 K, 10600 kPa
  viscosity: 4.5 ± 0.11 mPa·s
  mass density: 769.9 ± 2.3 kg/m3
363.15 K, 21500 kPa
  viscosity: 5.38 ± 0.14 mPa·s
  mass density: 777.9 ± 2.4 kg/m3
363.15 K, 42500 kPa
  viscosity: 7.21 ± 0.19 mPa·s
  mass density: 791.1 ± 2.4 kg/m3
363.15 K, 63700 kPa
  viscosity: 9.47 ± 0.25 mPa·s
  mass density: 802.4 ± 2.5 kg/m3

Source: the NIST ThermoML archive (doi:10.1021/acs.jced.8b00786)
